# Results as given in PMC3919815, “Anti-Tumor Effects of Novel 5-O-Acyl Plumbagins Based on the Inhibition of Mammalian DNA Replicative Polymerase Activity” (PLoS ONE, 2014).
# Key:
# Calf TdT = biological target: T1, Calf TdT (Bos taurus, UniProt P06526); assay: TdT activity inhibition; assay type: biochemical; settings: 0.05 units enzyme; mean ± SD (n = 3)
# T1 construct: purchased Takara Bio Inc. (Kyoto, Japan)
# Source text: Pol α was purified from calf thymus by immunoaffinity column chromatography as described by Tamai et al.. Recombinant rat pol β was purified from Escherichia coli JMpβ5 as described by Date et al.. The human pol γ catalytic gene was cloned into pFastBac. Histidine-tagged enzyme was expressed using the BACTO-BAC HT Baculovirus Expression System according to the manufacturer's instructions (Life Technologies, Frederick, MD, USA) and purified using ProBound resin (Invitrogen Japan, Tokyo Japan). Human pols δ and ε were purified by nuclear fractionation of human peripheral blood cancer cells (Molt-4) using the second subunit of pol δ and ε-conjugated affinity column chromatography, respectively. A truncated form of human pol η (residues 1–511) tagged with His6 at its C-terminal was expressed in E. coli cells and purified as described by Kusumoto et al.. A recombinant mouse pol ι tagged with His6 at its C-terminal was expressed and purified by Ni–NTA column chromatography. […]
# The chemically synthesized 5-O-acyl plumbagins (2a–j) were dissolved in distilled dimethyl sulfoxide (DMSO) to various concentrations and sonicated for 30 s. […] Activity without inhibitor was considered 100%, and the relative activity was determined for each inhibitor concentration. […]
# A549 (lung cancer) = assay: Cancer cell viability, MTT assay; assay type: cell-based, human; settings: 48 h, mean ± SD (n = 5)
# Experimental: (§1) The following human cancer cell lines were obtained from the American Type Culture Collection (Manassas, VA, USA): lung (A549), prostate (DU145 and PC3), colon (HCT116 and HT-29), cervix (HeLa), hepatocellular liver (HepG2), breast (MCF-7), and pancreatic cancer (PANC-1). These cells were cultured in RPMI 1640 medium supplemented with 10% fetal bovine serum, penicillin (100 units/mL), streptomycin (100 µg/mL), and 1.6 mg/mL NaHCO3 at 37°C in a humid atmosphere of 5% CO2/95% air. For the cell viability assay, cells were seeded at 1×10^3 cells/well in a 96-well microplate with various concentrations of the test compounds, and incubated for 48 h. MTT (3-(4,5-dimethylthiazol-2-yl)-2,5-diphenyl tetrazolium bromide) solution was added to a final concentration 0.6 mg/mL in Milli-Q purified water for 2 h, after which time the medium was discarded and the cells lysed in DMSO. A540 was then measured in a microplate reader (Model 680, Bio-Rad Laboratories, Hercules, CA, USA).
# DU145 (prostate cancer) = assay: Cancer cell viability, MTT assay; assay type: cell-based, human; settings: 48 h, mean ± SD (n = 5)
# Experimental: as §1
# [1] = system: HT-29 cells (colon cancer); assay: Cancer cell viability, MTT assay; assay type: cell-based, human; settings: 48 h, mean ± SD (n = 5)
# Experimental: as §1
# HeLa (cervical cancer) = assay: Cancer cell viability, MTT assay; assay type: cell-based, human; settings: 48 h, mean ± SD (n = 5)
# Experimental: as §1
# MCF-7 (breast cancer) = assay: Cancer cell viability, MTT assay; assay type: cell-based, human; settings: 48 h, mean ± SD (n = 5)
# Experimental: as §1
# [2] = system: PANC-1 (pancreatic cancer); assay: Cancer cell viability, MTT assay; assay type: cell-based, human; settings: 48 h, mean ± SD (n = 5)
# Experimental: as §1
# PC3 (prostate cancer) = assay: Cancer cell viability, MTT assay; assay type: cell-based, human; settings: 48 h, mean ± SD (n = 5)
# Experimental: as §1
# HT-29 solid tumors = assay: In vivo anti-tumor assay; set-up: species or system nude mice
# Source text: Male BALB/c nu/nu mice at 5 week of age (18 g) were purchased from Japan SLC, Inc. (Shizuoka, Japan). Mice receiving standard laboratory chow and water ad libitum were acclimatized for 1 week before inoculation with cancer cells. For in vivo experiments, human colon HT-29 cells (1×10^7 cells/mouse) were subcutaneously injected into nude mice. Mice bearing solid tumors that had grown to approximately 100 mm^3 in volume (tumor volume = length×width×height) at 12 days after implantation were used for the assessment of anti-tumor effects. They were divided randomly into five groups (n = 6/group). One of the five groups was a control group injected with 0.1 mL of phosphate buffered saline (PBS) alone, and other groups were injected with vitamin K3 (3), juglone (4), C18:1-acyl juglone (5f), and C18:1-acyl plumbagin (2f) dissolved in PBS at a dose of 5 mg/kg. The above administrations all took place between days 12–39 subsequent to implantation. All mice were injected subcutaneously 14 times at […] with the compound and PBS alone (control). Tumor growth was measured at 1-day intervals for 40 days after implantation. At the end of the in vivo anti-tumor assay, some mice treated with the test compounds and PBS were independently examined to observe major organs such as lung, heart, spleen, stomach, liver, pancreas, kidney, intestine, and brain.
# T1 sequence (P06526 whole entry): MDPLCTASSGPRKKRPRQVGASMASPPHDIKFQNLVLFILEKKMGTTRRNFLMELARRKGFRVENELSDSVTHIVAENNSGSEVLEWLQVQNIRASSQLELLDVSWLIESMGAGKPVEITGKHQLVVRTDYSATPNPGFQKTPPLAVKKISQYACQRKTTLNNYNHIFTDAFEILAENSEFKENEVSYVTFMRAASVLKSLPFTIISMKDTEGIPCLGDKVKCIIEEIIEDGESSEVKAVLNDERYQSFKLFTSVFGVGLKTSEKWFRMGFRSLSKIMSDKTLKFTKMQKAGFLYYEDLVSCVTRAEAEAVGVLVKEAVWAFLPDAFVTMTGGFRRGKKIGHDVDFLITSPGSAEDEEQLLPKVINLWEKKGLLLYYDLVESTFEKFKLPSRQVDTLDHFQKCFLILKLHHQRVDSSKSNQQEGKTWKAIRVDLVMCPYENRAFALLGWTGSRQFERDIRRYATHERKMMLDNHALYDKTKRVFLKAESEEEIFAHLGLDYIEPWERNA
smiles,measurement,setting,value
"CCCCCCCC/C=C\CCCCCCCC(=O)Oc1cccc2c1C(=O)C=C(C)C2=O [2f, 5-O-oleoyl-2-methyl-1,4-naphthoquinone]",IC50,Calf TdT,10.6 ± 0.5 µM
same,LD50 values,A549 (lung cancer),15.4 ± 1.7 µM
same,LD50 values,DU145 (prostate cancer),8.8 ± 0.9 µM
same,LD50 values,[1],2.9 ± 0.4 µM
same,LD50 values,[1]; listed as C18:1-acyl plumbagin,2.9 µM
same,LD50 values,HeLa (cervical cancer),21.0 ± 2.5 µM
same,LD50 values,MCF-7 (breast cancer),7.2 ± 0.7 µM
same,LD50 values,[2],16.1 ± 1.8 µM
same,LD50 values,PC3 (prostate cancer),10.0 ± 1.1 µM
same,"anti-tumor effect, fold stronger than the other compounds tested","HT-29 solid tumors; 5 mg/kg, versus vitamin K3, juglone, C18:1-acyl juglone",> 3 fold
same,decreased rates of tumor volume,"HT-29 solid tumors; at 40 days, 5 mg/kg subcutaneously in PBS, versus PBS control, n = 6",30.5%
